From patent US12063929B2, “3′-alkynyl abscisic acid derivatives as ABA antagonists” (University of Saskatchewan, priority 2018, dated 2024)

Legend:
Format in all cases: in vivo
Lentil (CDC Maxim) = Lentil (CDC Maxim) seed germination assay; details: for antagonist activity, lentil germination: 10 uM versus 10 uM ABA; for antagonist activity, lentil germination / agonist activity, lentil germination: data not shown; for agonist activity, lentil germination: 10 uM; for lentil seed germination, antagonism of ABA: 10 μM ABA plus 10 μM compound (FIG. 6C)
Protocol: 40 seeds were counted for each 100×15 mm petri dishes. Each petri dish contained two filter papers and 10 mL of test solutions. Then, they were wrapped with aluminium foil to cut off light. Wrapped plates were kept on lab bench at room temperature. Germinated seeds were counted everyday until one treatment reaches 100% germination (two days). Only light exposure was during plate counting. […]
All seeds from this experiment have been rinsed first with tap water and then with dH2O, frozen in liquid nitrogen and stored at −80° C. freezer.

[1] = test system: Canola seed (Nutrien PV200); assay: Canola seed germination assay; details: 10 μM ABA, 8 day study (FIG. 10)
Protocol: For each treatment 6 replicates of 40 seeds were plated into petri dishes lined with two filter papers and 10 mL of test solution. The covered dishes were stored at room temperature in the dark. Germinated seeds were counted every 2 days for 8 days. The following dosages were used when studying the effect of exemplary compounds on canola germination: control 1% DMSO. 10 μM ABA, 100 μM 1019, and 100 μM 1019 plus 10 μM ABA.

Hard Red Spring wheat = Hard Red Spring wheat seedling growth (root and shoot length); details: 10 μM ABA, 72 h
Protocol: For each treatment 3 replicates of 10 seeds were plated into petri dishes lined with two filter papers and 10 mL of test solution. The covered dishes were stored at room temperature in the dark. At 72 hours, germinated seeds were scored for root length and shoot length. The following dosages were used when studying the effect of the exemplary ABA analogues of the application on wheat shoot and root growth: control 1% DMSO. 10 μM ABA, 10 μM 1019, 100 μM exemplary compound 1019, 10 μM exemplary compound 1019 plus 10 μM ABA […] and 100 μM exemplary compound 1019 plus 10 μM ABA […].

[2] = 100 μM compound, in the presence of 10 μM ABA (FIG. 5)
[3] = 100 μM compound alone, compared to control (FIG. 6A)
[4] = 100 μM compound plus 10 μM ABA (FIG. 6B)

CC1=C(c2ccccc2)C(=O)CC(C)(C)[C@@]1(O)/C=C/C(C)=C\C(=O)O [Compound 1080, (2Z,4E)-5-((S)-3-hydroxy-2,4,4-trimethyl-6-oxo-3,4,5,6-tetrahydro-′[1,1′-biphenyl]-3-yl)-3-methylpenta-2,4-dienoic acid]
lentil seed germination (Lentil (CDC Maxim); [2]): weakly promoted

CC1=CC(=O)CC(C)(C)[C@@]1(O)/C=C/C(C)=C\C(=O)O [ABA, (2Z,4E)-5-[(1S)-1-hydroxy-2,6,6-trimethyl-4-oxocyclohex-2-en-1-yl]-3-methylpenta-2,4-dienoic acid, reference compound]
lentil seed germination (Lentil (CDC Maxim); 10 uM ABA alone, day one (FIG. 3A)): completely inhibited | canola seed germination [1]: inhibited seed germination | shoot growth (Hard Red Spring wheat): inhibited

CCC(O)(C#CC1=C(C)[C@](O)(/C=C/C(C)=C\C(=O)O)C(C)(C)CC1=O)CC [Compound 1059, (2Z,4E)-5-((S)-3-(3-ethyl-3-hydroxypent-1-yn-1-yl)-1-hydroxy-2,6,6-trimethyl-4-oxocyclohex-2-en-1-yl)-3-methylpenta-2,4-dienoic acid]
antagonist activity, lentil germination (Lentil (CDC Maxim)): weak antagonist activity | agonist activity, lentil germination (Lentil (CDC Maxim)): no agonist activity

CCc1ccc(C#CC2=C(C)[C@](O)(/C=C/C(C)=C\C(=O)O)C(C)(C)CC2=O)cc1 [Compound 1025, (2Z,4E)-5-((S)-3-((4-Ethylphenyl)ethynyl)-1-hydroxy-2,6,6-trimethyl-4-oxocyclohex-2-en-1-yl)-3-methylpenta-2,4-dienoic acid]
lentil seed germination (Lentil (CDC Maxim); compound at 1 uM): most highly promoted

CC1=C(C#C/C(C)=C\CO)C(=O)CC(C)(C)[C@@]1(O)/C=C/C(C)=C\C(=O)O [Compound 1063, (2Z,4E)-5-((S)-1-hydroxy-3-((Z)-5-hydroxy-3-methylpent-3-en-1-yn-1-yl)-2,6,6-trimethyl-4-oxocyclohex-2-en-1-yl)-3-methylpenta-2,4-dienoic acid]
antagonist activity, lentil germination (Lentil (CDC Maxim)): weak antagonist activity | agonist activity, lentil germination (Lentil (CDC Maxim)): no agonist activity

CC1=C(C#CC2CCCCC2)C(=O)CC(C)(C)[C@@]1(O)/C=C/C(C)=C\C(=O)O [Compound 1100, (2Z,4E)-5-((S)-3-(cyclohexylethynyl)-1-hydroxy-2,6,6-trimethyl-4-oxocyclohex-2-en-1-yl)-3-methylpenta-2,4-dienoic acid]
lentil seed germination, antagonism of ABA (Lentil (CDC Maxim)): effective antagonists | lentil seed germination (Lentil (CDC Maxim); [3]): no effect | lentil seed germination (Lentil (CDC Maxim); [4]): overcame the effect

CC1=C(/C=C/c2ccccc2)C(=O)CC(C)(C)[C@@]1(O)/C=C/C(C)=C\C(=O)O [Compound 1090, (2Z,4E)-5-((S)-1-hydroxy-2,6,6-trimethyl-4-oxo-3-((E)-styryl)cyclohex-2-en-1-yl)-3-methylpenta-2,4-dienoic acid]
lentil seed germination (Lentil (CDC Maxim); [2]): promoted

CC1=C(C#Cc2ccc(O)cc2)C(=O)CC(C)(C)[C@@]1(O)/C=C/C(C)=C\C(=O)O [Compound 1091, (2Z,4E)-5-((S)-1-hydroxy-3-((4-hydroxyphenyl)ethynyl)-2,6,6-trimethyl-4-oxocyclohex-2-en-1-yl)-3-methylpenta-2,4-dienoic acid]
lentil seed germination, antagonism of ABA (Lentil (CDC Maxim)): effective antagonists | lentil seed germination (Lentil (CDC Maxim); [3]): no effect | lentil seed germination (Lentil (CDC Maxim); [4]): overcame the effect
